In patent US20160287696A1, “PAN POLLEN IMMUNOGENS AND METHODS AND USES FOR IMMUNE RESPONSE MODULATION” (LA JOLLA INSTITUTE FOR ALLERGY AND IMMUNOLOGY, priority 2013, published 2016):
Where “and” joins values, the source holds several entries; their conditions need not be identical. Equal entries are not always repeated.

Experiments:
[1] = test system: cultured PBMCs of the allergic donors; assay: ELISPOT of IL-5 or IFNg production by cultured PBMCs of TG allergic donors in response to peptide; format: cell-based, human
Text: Table 1 indicates for each of the 397 PG+ peptides in which non-grass pollen species a matching peptide with either less than 3, less than 2 or zero mismatches are found. The number of TG grass allergic donors (n=20) with an in vitro T cell response to the TG peptide sequence is also shown.
A set of 93 proteins from Timothy grass (TG) pollen and the assembly of 822 peptides (15 mers) predicted to promiscuously bind HLA class II molecules shown in Table 9 and the immune reactivity in allergic donors have been reported in PCT application WO 2013/119863. […] Immune reactivity was determined by the production of IL-5 or IFNg from cultured PBMCs of the allergic donors in response to stimulation with a peptide and IL-5 and IFNg were measured by ELISPOT as described in Oseroff C et al, 2010.
In short, T cell immune reactivity was determined using PBMCs isolated from study participants and stored in liquid nitrogen until further use. For experimental testing, PBMCs were thawed and expanded in vitro with TG pollen extract (50 μg/mL) or the peptide pool ([…]). The TG extract and peptide pools had each been previously titrated to determine optimal stimulation concentrations.
Cytokine production by cultured PBMCs in response to antigen stimulation was measured by ELISPOT. Cells (1×10^5 cells/well) were plated and incubated with peptide (10 μg/mL), the peptide pool (5 μg/mL), or the TG extract (50 μg/mL). Phytohaemagglutinin (10 μg/mL) and medium alone were used as positive and negative controls, respectively. Samples were considered to produce a cytokine if 100 spot-forming cells (SFCs)/10^6 PBMCs were detected, with P .05 and a stimulation index of 2 or more. Criteria for individual peptides were the same except that a minimum of 20 SFCs were required for a sample to be counted as positive.
Table 3 lists the 397 PG+ peptides and indicates for each non-grass pollen species whether a matching peptide with either less than 3, less than 2 or zero mismatches could be detected. The immune reactivity of the TG peptide was assessed as the number of TG grass allergic donors (n=20) having in vitro T cell response against the TG peptide.

[2] = test system: PBMCs from Phl p reactive donors; assay: Cross-reactivity: IL-5 ELISPOT of PBMCs expanded 14 days with individual peptides, response to pollen extracts; format: cell-based, human; conditions: for Bet v % Reactivity: Bet v (tree) pollen extract; for Bet v % Reactivity / Cyn d % Reactivity / Lol p % Reactivity / Ole e % Reactivity / Poa p % Reactivity / Que a % Reactivity / Pla l % Reactivity / Amb p % Reactivity / Ant o % Reactivity / Phl p % Reactivity: reactivity of extract as percentage of reactivity to the peptide, PBMCs expanded 14 days with the peptide; for Cyn d % Reactivity: Cyn d (grass) pollen extract; for Lol p % Reactivity: Lol p (grass) pollen extract; for Ole e % Reactivity: Ole e (tree) pollen extract; for Poa p % Reactivity: Poa p (grass) pollen extract; for Que a % Reactivity: Que a (tree) pollen extract; for Controls, Irrelevant Pool: control: response to irrelevant pool of cells expanded with the peptide; for Controls, Relevant Pool: control: response to relevant pool of cells expanded with the peptide; for Pla l % Reactivity: Pla l (weed) pollen extract; for % Reactivity, Fra e: reactivity of Fra e (tree) pollen extract as percentage of the reactivity to the peptide, cells expanded with the peptide for 14 days; for Amb p % Reactivity: Amb p (weed) pollen extract; for Ant o % Reactivity: Ant o (grass) pollen extract; for Phl p % Reactivity: Phl p (grass) pollen extract
Protocol: For each peptide, TG allergic donors were selected that reacted to the peptide after expanding PBMCs in vitro with TG extract. […] Reponses to extracts and peptide pools are expressed as the relative fraction of the response to the peptide itself, and capped at 100%.
Each peptide was used to stimulate cells and cross reactivity was tested for extracts from each pollen species. The number of mismatches (# of mm) for each peptide compared to the pollen species and the reactivity of the extracts as a percentage of the reactivity compared to the peptide are shown.
PBMCs from Phl p reactive donors were expanded with individual PG+ peptides as well as peptides derived from major allergens of Phl p for 14 days (peptides shown in Table 10). For each peptide, the mismatch to a corresponding sequence in a non-grass pollen species or a pollen species other than Phl p were determined. Cytokine IL-5 responses were measured in response to the peptide itself, Phl p extract and extracts of the other pollen species. Reponses to extracts and peptide pools were expressed as the relative fraction of the response to the peptide itself and plotted as a function of conservation of the peptide in the different extracts (FIG. 1).

| Substance | No of PG+ & th+ peptides per NTGA ([1]; Table 6, PG+ peptides recognized by T cells of grass allergic donors (n=20)) | No of PP & Th+ peptides per NTGA ([1]; Table 6, PP peptides recognized by T cells of grass allergic donors (n=20)) | # Th+ ([1]; Table 7, peptides per NTGA recognized by T cells of grass allergic donors (n=20)) | Bet v % Reactivity [2] | Cyn d % Reactivity [2] | Lol p % Reactivity [2] | Ole e % Reactivity [2] | Poa p % Reactivity [2] | Que a % Reactivity [2] | Controls, Irrelevant Pool [2] | Controls, Relevant Pool [2] | Pla l % Reactivity [2] | % Reactivity, Fra e [2] | Amb p % Reactivity [2] [%] | Ant o % Reactivity [2] [%] | Phl p % Reactivity [2] |
| --- | --- | --- | --- | --- | --- | --- | --- | --- | --- | --- | --- | --- | --- | --- | --- | --- |
| 36 (KRFFVTPSDSVAIIA) [compound 36] | 0 | 0 | 0 |  |  |  |  |  |  |  |  |  |  |  |  |  |
| LIEKINAGFKAAVAA |  |  |  | 0% and 9% | 1% and 9% | 39% and 77% | 2% and 12% | 41% and 79% | 0% and 3% | 14 and 20 | 83 and 90 |  |  |  |  |  |
| NGSQFFLCTAKTAWL |  |  |  | 1% |  |  | 4% and 5% |  |  |  | 100 and 89 | 1% and 2% | 3% and 0% |  |  |  |
| SDAKTLVLNIKYTRP |  |  |  |  |  |  |  |  |  |  | 88 and 100 and 81 and 80 |  |  |  |  |  |
| GSDEKNLALSIKYNK |  |  |  | 0% | 8% | 66% | 10% | 67% | 0% | 19 | 87 | 0% | 4% | 5 | 58 | 32% |
| FKAAVAAAAGAPPAD |  |  |  | 22% | 31% | 68% | 39% | 26% | 6% | 23 | 100 | 2% | 38% | 15 | 62 | 2% |
| NVFDEVIPTAFTVGK |  |  |  | 2% and 0% | 0% | 96% and 100% |  |  | 0% | 17 and 28 | 100 |  |  |  |  | 75% and 81% |
| IGSFFYFPSIGMQRT |  |  |  | 2% | 9% | 6% | 1% | 2% | 1% | 1 | 63 | 2% | 1% | 0 | 3 | 0% |
| EEWEPLTKKGNVWEV |  |  |  | 3% | 7% | 100% | 13% | 100% | 1% | 32 | 100 | 23% | 76% | 49 | 100 | 100% |
| NPMTVFWSKMAQSMT |  |  |  | 0% | 1% | 1% | 0% | 0% | 0% | 1 | 79 | 0% | 0% | 0 | 0 | 0% |
| NAGFKAAVAAAAVVP |  |  |  |  |  |  |  |  |  |  | 77 and 100 |  |  |  |  |  |
| DINVGFKAAVAAAAG |  |  |  | 0% and 2% |  |  |  |  | 2% and 0% |  | 53 and 100 and 95 | 0% and 3% and 10% | 0% and 4% and 1% |  |  |  |
